Measured values as given in patent US12691130B2, “Compositions and methods for improving cognitive function” (Diamond Therapeutics Inc., priority 2019, dated 2026).
“Also recorded” adds a separate entry of the source.

Key:
Long Evans rats [1] = assay: 5CSRTT with 10 s ITI, premature (PREM) and perseverative (PSV) responses; assay type: in vivo; details: 0.05 mg/kg S.C., 24 rats
Protocol: A) Graphs show increase in PREM and PSV responses under a 5 second inter-trial interval (ITI) which establishes a baseline (Base) and a 10 second ITI across 24 animals across two doses of psilocybin (0.05 mg/kg and 0.1 mg/kg). Standard deviation is indicated by error bars; asterisks (*) indicate significance vs. vehicle (P=0.05) using T-test. B) Graphs show effects of psilocybin on PREM and PSV in low performer and high performer subgroups. Standard error of the mean is indicated by error bars; asterisks (*) indicate significance vs. vehicle (P<0.01) using T-test. High performers are defined as rats with the highest tertile of premature responses in the baseline test; low performers are rats with the bottom tertile of premature responses in the baseline test.
Experiments were conducted to test psilocybin doses in the range of 0.05-0.2 mg/kg psilocybin administered S.C. across progressive ratio (PR) and 5-choice serial reaction time task (5CSRTT) to examine the effect of psilocybin on endophenotypes of motivation and attention. In each study, a population of out-bred Long Evans rats was first tested as a group for response to the PR and 5CSRTT. Each group was then divided into sub-groups by tertiles according to performance, and then exposed to various dose levels immediately prior to re-testing at various psilocybin dose levels. […]

Long Evans rats [2] = assay: 5-choice serial reaction time task (5CSRTT), standard conditions, 5 s ITI; assay type: in vivo
Protocol: Asterisk (*) indicates statistical difference vs. vehicle. […] High performers are defined as rats completing the highest tertile of Hits or Correct nose-pokes in the baseline test; low performers are rats completing the bottom tertile of Hits or Correct nose-pokes in the baseline test.
Asterisk (*) indicates statistical significance vs. vehicle.
(§1) Experiments were conducted to test psilocybin doses in the range of 0.05-0.2 mg/kg psilocybin administered S.C. across progressive ratio (PR) and 5-choice serial reaction time task (5CSRTT) to examine the effect of psilocybin on endophenotypes of motivation and attention. In each study, a population of out-bred Long Evans rats was first tested as a group for response to the PR and 5CSRTT. Each group was then divided into sub-groups by tertiles according to performance, and then exposed to various dose levels immediately prior to re-testing at various psilocybin dose levels.
The 5CSRTT involves evaluating test subject response to a brief visual stimulus (Higgins, Guy & Silenieks, Leonardo. (2017). Rodent Test of Attention and Impulsivity: The 5-Choice Serial Reaction Time Task: The 5-Choice Serial Reaction Time Task. 10.1002/cpph.27). Animals are trained to make a nose-poke response to a stimulus location in order to collect a food reward. The task allows the experimenter to measure animal performance in multiple domains including: • Attention • Impulsivity • Perseveration • Speed of response
A strength of the test is its flexible configuration to challenge test subjects: • Standard test conditions (0.75 s stimulus duration (SD), 5 s inter-trial interval (ITI), 100 trials) • Multiple short stimulus duration (mSD) (0.03-1 s SD) • Fixed long ITI (5 s vs. 10 s ITI) • Multiple ultrashort ITI (2-5 s ITI) • Extended 250 trials
Asterisk (*) indicates statistical significance vs. vehicle. (FIG. 3A).
When this population is segmented into tertiles according to performance based on accuracy (% correct, calculated as #correct/(#correct+ #incorrect)*100), the lowest performing tertile (N=8) are considered to be low attentive and potentially representative of a low attentive endophenotype of depression (FIG. 6A). Low attentive rats also score poorly on % hit (FIG. 6B) and have a slower response speed (FIG. 6D). […] Asterisk (*) indicates statistical significance vs. vehicle.

Long Evans rats [3] = assay: Progressive ratio (PR) test of motivation; assay type: in vivo
Protocol: High responders are defined as rats completing the highest tertile of lever presses in the baseline test; low responders are rats completing the bottom tertile of lever presses in the baseline test. Asterisk (*) indicates statistical significance between high and low responders.
as §1
The PR test is used to answer how willing the test subject is to work for food (i.e. test of motivation). A single 45 mg food pellet (i.e. reinforcer) is made available to the test animal based on lever press response. To obtain each successive pellet, the animal must make increasingly more lever presses. Typically, a progression of 2, 4, 6, 9, 12, 15, 20, 25, 32, 40, 50, 62, 77, 95, 118, etc. is used, derived from the equation: […]
At some point, the animal gives up as the motor demands to obtain a single pellet are not deemed worthwhile (i.e. animal reaches “break point” defined as animal's failure to earn a food pellet in 20 minutes).
Psilocybin was administered to rats S.C. at doses of 0.05, 0.1 and 0.2 mg/kg.
Rats were then sub-grouped into tertiles based on the number of lever presses for food at baseline, so that within the test population of 36 animals, 12 animals were identified as low responders, characterized by low motivation and potentially corresponding to low motivation endophenotype representative of clinical depression. Twelve animals were identified as high responders. There was a statistically significant difference between the high and low responders. […] This represents a motivational enhancing effect of psilocybin in the cohort corresponding to a low motivation endophenotype representative of clinical depression.

5-HT2A receptor = 5-HT2A receptor (Rattus norvegicus, UniProt P14842); assay: Dose finding: behavioral syndrome, wet dog shakes (WDS) and back muscle contractions (BMC); details: rats
Chain of 5-HT2A receptor (P14842 whole entry): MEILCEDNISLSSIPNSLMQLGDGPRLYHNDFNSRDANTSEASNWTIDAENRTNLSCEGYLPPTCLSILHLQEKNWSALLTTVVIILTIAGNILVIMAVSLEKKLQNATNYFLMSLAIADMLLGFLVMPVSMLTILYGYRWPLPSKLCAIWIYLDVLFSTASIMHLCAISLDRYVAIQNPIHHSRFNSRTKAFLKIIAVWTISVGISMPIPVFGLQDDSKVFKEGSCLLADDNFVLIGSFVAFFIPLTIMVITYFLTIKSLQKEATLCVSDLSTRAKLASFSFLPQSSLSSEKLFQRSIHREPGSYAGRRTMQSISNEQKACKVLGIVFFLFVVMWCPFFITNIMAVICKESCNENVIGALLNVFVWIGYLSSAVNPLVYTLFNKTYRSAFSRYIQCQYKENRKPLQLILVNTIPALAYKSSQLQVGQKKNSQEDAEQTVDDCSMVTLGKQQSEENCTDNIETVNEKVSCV
Protocol: The total number (N) of wet dog shakes (WDS) and back muscle contractions (BMC) is plotted against dose (mg/kg).
Psilocybin was tested at a dose range of 0.03-10.0 mg/kg administered sub-cutaneously (S.C.) Behavioral syndrome including wet dog shakes (WDS) and back muscle contractions (BMC) are characteristic of 5-HT2A receptor activity and potentially indicative of psychomotor signs. […] There is a parallel between behaviors such as WDS in rats and hallucination in humans (Behavioral Neurobiology of Psychedelic Drugs, Halberstadt, Adam, Vollenweider, Franz X., Nichols, David E. (Eds.), Springer, 2018, p 161).

rats = assay: Dose finding: locomotor activity (distance travelled); assay type: in vivo
Source text: Stimulant drugs cause far larger increases in distance travelled with escalating doses, reflective of a direct motor stimulant property not seen with psilocybin.

[4] = Psilocybin plasma pharmacokinetics after s.c. psilocybin; assay type: in vivo; details: rats
Protocol: Psilocybin doses of 0.05, 0.1, 1, 10 mg/kg were used to evaluate psilocybin and psilocin PK in rats.
Details of the plasma concentration studies are shown in Tables 1-8 (psilocybin) and 9-16 (psilocin). Values in italics are below the lower level of quantitation (BLQ, <1 ng/mL) but were included in calculations. Values in bold and underlined are considered to be outliers and were omitted from calculations. Measured dosing solution concentrations were 0.0460, 0.0967, 0.948 and 9.65 mg/mL for 0.05, 0.1, 1 and 10 […].

CN(C)CCc1c[nH]c2cccc(OP(=O)(O)O)c12 [psilocybin, 4-phosphoryloxy-N,N-dimethyltryptamine]
PREM and PSV responses (Long Evans rats [1]): an increase (p=0.05, t-test) increase in PREM and PSV responses | pro-cognitive effect, % hit (Long Evans rats [2]; 0.05 mg/kg S.C., 24 rats, 75 s SD, 5 S ITI, 100 trials, vs. vehicle): increased (p=0.05, t-test) pro-cognitive effect | procognitive effect, % correct (Long Evans rats [2]; 0.05 mg/kg S.C., 24 rats, standard conditions): slight non-significant increase in procognitive effect | response speed (Long Evans rats [2]; 0.05 mg/kg, low attentive cohort, vs. vehicle): increased response speed in the low attentive cohort compared with vehicle; also recorded: Significant improvements | effect on accuracy (% correct and % hit) (Long Evans rats [2]; 0.05 and 0.1 mg/kg, low attentive subgroup (N=8), vs. vehicle): strongly evident in the low attentive subgroup compared with vehicle; also recorded: Significant improvements | PR food responding (lever presses, break point) (Long Evans rats [3]; 0.05 mg/kg S.C., low responder subgroup (12 rats)): an increase in food responding in low responder subgroup; also recorded: Significant improvements | PR food responding (Long Evans rats [3]; 0.1 mg/kg S.C., low responder subgroup (12 rats)): did not produce an increase in food responding | number of lever presses or break points (rewards earned) (Long Evans rats [3]; 0.05, 0.1 and 0.2 mg/kg S.C., entire study population of 36 rats): None of these doses were observed to cause obvious changes in the number of lever presses or break points | PR response (lever presses) (Long Evans rats [3]; 0.05-0.2 mg/kg S.C., high responder subgroup (12 rats)): no effect on response in high responder subgroup | detrimental effects on performance (motivation, motor control, attention, response speed) (Long Evans rats [3]; PR 0.05-0.2 mg/kg and 5CSRTT 0.05-0.1 mg/kg S.C.): no detrimental effects of psilocybin were noted on performance | signs of behavioral syndrome (WDS, BMC) (5-HT2A receptor; 0.3 mg/kg I.P and higher): significant signs of behavior syndrome | signs of behavioral syndrome (WDS, BMC) (5-HT2A receptor; 0.03-0.1 mg/kg S.C.): no signs of behavioral syndrome | distance travelled (rats; high doses): slightly decreased distanced travelled | increase in distance travelled (rats; low doses): 0.3-0.4 fold | AUC0-tlast, psilocybin, Mean ([4]; 0.05 mg/kg s.c.): 10.7 ng·h/mL | Cmax, psilocybin, Mean ([4]; 0.05 mg/kg s.c.): 18.9 ng/mL | Cmax/Dose, psilocybin, Mean ([4]; 0.05 mg/kg s.c.): 377 kg·ng/mL/mg | tmax, psilocybin, Mean ([4]; 0.05 mg/kg s.c.): 36 min | AUC0-tlast, psilocybin, Mean ([4]; 0.1 mg/kg s.c.): 11.4 ng·h/mL | Cmax, psilocybin, Mean ([4]; 0.1 mg/kg s.c.): 31.4 ng/mL | Cmax/Dose, psilocybin, Mean ([4]; 0.1 mg/kg s.c.): 314 kg·ng/mL/mg | tmax, psilocybin, Mean ([4]; 0.1 mg/kg s.c.): 19.3 min | AUC0-inf, psilocybin, Mean ([4]; 1.0 mg/kg s.c.): 47.9 ng·h/mL | AUC0-inf/Dose, psilocybin, Mean ([4]; 1.0 mg/kg s.c.): 47.9 kg·ng·h/mL/mg | AUC0-tlast, psilocybin, Mean ([4]; 1.0 mg/kg s.c.): 53.1 ng·h/mL | Apparent t1/2, psilocybin, Mean ([4]; 1.0 mg/kg s.c.): 26.7 min | Cmax, psilocybin, Mean ([4]; 1.0 mg/kg s.c.): 78.3 ng/mL | Cmax/Dose, psilocybin, Mean ([4]; 1.0 mg/kg s.c.): 78.3 kg·ng/mL/mg | MRT0-inf, psilocybin, Mean ([4]; 1.0 mg/kg s.c.): 44.8 min | tmax, psilocybin, Mean ([4]; 1.0 mg/kg s.c.): 21.4 min | AUC0-inf, psilocybin, Mean ([4]; 10 mg/kg s.c.): 2156 ng·h/mL | AUC0-inf/Dose, psilocybin, Mean ([4]; 10 mg/kg s.c.): 216 kg·ng·h/mL/mg | AUC0-tlast, psilocybin, Mean ([4]; 10 mg/kg s.c.): 1707 ng·h/mL | Apparent t1/2, psilocybin, Mean ([4]; 10 mg/kg s.c.): 34 min | Cmax, psilocybin, Mean ([4]; 10 mg/kg s.c.): 3595 ng/mL | Cmax/Dose, psilocybin, Mean ([4]; 10 mg/kg s.c.): 359 kg·ng/mL/mg | MRT0-inf, psilocybin, Mean ([4]; 10 mg/kg s.c.): 43 min | tmax, psilocybin, Mean ([4]; 10 mg/kg s.c.): 30 min
